Test results from PubChem BioAssay AID200 (DTP/NCI, 2004).
“And” between values parts separate entries of the source, which are not always exact repeats. Equal values may be shown once. Inconclusive results and toxic doses are left out. Where a SMILES comes first, the peptide text is derived from it.

System: B6C3F1 mice, B16 melanoma ip, median survival T/C
Test: NCI In Vivo Anticancer Drug Screen. Data for tumor model B16 Melanoma (intraperitoneal) in B6C3F1 mice
Conditions: endpoint: median survival time, higher = longer survival
Summary of the method: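 Readout: survival or tumor size in treated mice relative to vehicle controls (T/C). Model uses transplantable tumors grown in mice.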

[1] = dose: 12.5 mg/kg/injection, schedule: Q01DX009 (ip), vehicle: saline
[2] = dose: 25.0 mg/kg/injection, schedule: Q01DX009 (ip), vehicle: saline
[3] = dose: 50.0 mg/kg/injection, schedule: Q01DX009 (ip), vehicle: saline
[4] = dose: 100.0 mg/kg/injection, schedule: Q01DX009 (ip), vehicle: saline
[5] = dose: 200.0 mg/kg/injection, schedule: Q01DX009 (ip), vehicle: saline
[6] = dose: 400.0 mg/kg/injection, schedule: Q01DX009 (ip), vehicle: saline
[7] = dose: 25.0 mg/kg/injection, schedule: Q01DX009 (ip), vehicle: Klucel (hydroxypropylcellulose) (HPC)
[8] = dose: 50.0 mg/kg/injection, schedule: Q01DX009 (ip), vehicle: Klucel (hydroxypropylcellulose) (HPC)
[9] = dose: 100.0 mg/kg/injection, schedule: Q01DX009 (ip), vehicle: saline with Tween-80
[10] = dose: 200.0 mg/kg/injection, schedule: Q01DX009 (ip), vehicle: saline with Tween-80
[11] = dose: 12.5 mg/kg/injection, schedule: Q01DX009 (ip), vehicle: Klucel (hydroxypropylcellulose) (HPC)
[12] = dose: 6.25 mg/kg/injection, schedule: Q01DX009 (ip), vehicle: saline with Tween-80
[13] = dose: 6.25 mg/kg/injection, schedule: Q01DX009 (ip), vehicle: Klucel (hydroxypropylcellulose) (HPC)
[14] = dose: 12.5 mg/kg/injection, schedule: Q01DX009 (ip), vehicle: saline with Tween-80
[15] = dose: 25.0 mg/kg/injection, schedule: Q01DX009 (ip), vehicle: saline with Tween-80
[16] = dose: 50.0 mg/kg/injection, schedule: Q01DX009 (ip), vehicle: saline with Tween-80
[17] = dose: 75.0 mg/kg/injection, schedule: Q01DX009 (ip), vehicle: saline

Compound: C/C(=N\NC(=O)c1ccncc1)c1ccc(Cl)cc1
- T/C (dose: 1.25 mg/kg/injection, schedule: Q01DX009 (ip), vehicle: saline): 96 % of control
- T/C (dose: 2.5 mg/kg/injection, schedule: Q01DX009 (ip), vehicle: saline): 98 % of control
- T/C (dose: 5.0 mg/kg/injection, schedule: Q01DX009 (ip), vehicle: saline): 107 % of control

Compound: CONc1ccn(C2OC(CO)C(O)C2O)c(=O)n1 (centres undefined)
- T/C [1]: 92 % of control and 98 % of control
- T/C [2]: 101 % of control and 102 % of control
- T/C [3]: 103 % of control and 104 % of control
- T/C [4]: 91 % of control and 106 % of control
- T/C [5]: 113 % of control and 91 % of control
- T/C [6]: 89 % of control and 94 % of control

Compound: Cc1ccc(N=Nc2c(O)ccc3n[nH]nc23)cc1
- T/C [7]: 94 % of control
- T/C [8]: 96 % of control
- T/C (dose: 100.0 mg/kg/injection, schedule: Q01DX009 (ip), vehicle: Klucel (hydroxypropylcellulose) (HPC)): 114 % of control

Compound: O=C(N/N=C/c1ccccc1O)c1cccc([N+](=O)[O-])c1
- T/C [9]: 103 % of control
- T/C [10]: 87 % of control
- T/C (dose: 400.0 mg/kg/injection, schedule: Q01DX009 (ip), vehicle: saline with Tween-80): 96 % of control

Compound: CC[C@H](CC[C@@H](C)[C@H]1CC[C@H]2[C@@H]3CC=C4C[C@@H](OC(C)=O)CC[C@]4(C)[C@H]3CC[C@]12C)C(C)C
- T/C [11]: 95 % of control

Compound: Cn1cc(NC(=O)c2cc(NC(=O)c3cc(NC=O)cn3C)cn2C)cc1C(=O)NCCC(=N)N
- T/C (dose: 6.25 mg/kg/injection, schedule: Q01DX009 (ip), vehicle: water): 99 % of control and 101 % of control and 105 % of control

Compound: CCCCCCCCCCCC(=O)NC1CC(O[C@H]2C[C@](O)(C(=O)CO)Cc3c(O)c4c(c(O)c32)C(=O)c2c(OC)cccc2C4=O)OC(C)C1O (some centres undefined)
- T/C (dose: 3.0 mg/kg/injection, schedule: Q01DX009 (ip), vehicle: saline): 171 % of control and 294 % of control
- T/C (dose: 6.0 mg/kg/injection, schedule: Q01DX009 (ip), vehicle: saline): 250 % of control and 333 % of control
- T/C (dose: 12.0 mg/kg/injection, schedule: Q01DX009 (ip), vehicle: saline): 333 % of control and 357 % of control
- T/C (dose: 24.0 mg/kg/injection, schedule: Q01DX009 (ip), vehicle: saline): 122 % of control and 357 % of control
- T/C (dose: 48.0 mg/kg/injection, schedule: Q01DX009 (ip), vehicle: saline): 94 % of control

Compound: COc1cccc2c1C(=O)c1c(O)c3c(c(O)c1C2=O)C[C@@](O)(C(=O)CO)C[C@@H]3OC1CC(N(C)C)C(O)C(C)O1 (some centres undefined)
- T/C (dose: 0.12 mg/kg/injection, schedule: Q01DX009 (ip), vehicle: saline): 100 % of control
- T/C (dose: 0.5 mg/kg/injection, schedule: Q01DX009 (ip), vehicle: saline): 152 % of control and 166 % of control
- T/C (dose: 1.0 mg/kg/injection, schedule: Q01DX009 (ip), vehicle: saline): 153 % of control and 205 % of control
- T/C (dose: 2.0 mg/kg/injection, schedule: Q01DX009 (ip), vehicle: saline): 172 % of control and 261 % of control

Compound: ClC(Cl)(Cl)Sn1cccn1
- T/C (dose: 3.12 mg/kg/injection, schedule: Q01DX009 (ip), vehicle: saline with Tween-80): 103 % of control
- T/C [12]: 87 % of control
- T/C [3]: 87 % of control

Compound: OC1CC2CCCCC2CC1c1ccccc1 (centres undefined)
- T/C (dose: 25.0 mg/kg/injection, schedule: Q04DX003 (ip), vehicle: saline with Tween-80): 95 % of control
- T/C (dose: 50.0 mg/kg/injection, schedule: Q04DX003 (ip), vehicle: saline with Tween-80): 114 % of control
- T/C (dose: 100.0 mg/kg/injection, schedule: Q04DX003 (ip), vehicle: saline with Tween-80): 104 % of control
- T/C (dose: 200.0 mg/kg/injection, schedule: Q04DX003 (ip), vehicle: saline with Tween-80): 93 % of control
- T/C (dose: 400.0 mg/kg/injection, schedule: Q04DX003 (ip), vehicle: saline with Tween-80): 92 % of control

Compound: CCC(N)C(=O)NCC(=O)NCC(=O)O (centres undefined) (HELM PEPTIDE1{[CCC(N)C(=O)[*:2]].G.G}$$$$V2.0)
- T/C [4]: 105 % of control
- T/C [5]: 108 % of control
- T/C [6]: 109 % of control

Compound: CN(C)CCC(=O)C(=Cc1ccc(O)cc1)C(=O)CCN(C)C
- T/C [1]: 101 % of control
- T/C [2]: 97 % of control
- T/C [3]: 101 % of control
- T/C [4]: 97 % of control
- T/C [5]: 102 % of control

Compound: COc1ccc(Cl)[n+]([O-])n1
- T/C (dose: 3.12 mg/kg/injection, schedule: Q01DX009 (ip), vehicle: Klucel (hydroxypropylcellulose) (HPC)): 93 % of control
- T/C [13]: 88 % of control
- T/C [11]: 94 % of control
- T/C [7]: 99 % of control
- T/C [8]: 93 % of control

Compound: O=C(O)/C=C/C(=O)N1Cc2cc3ccccc3nc2C1
- T/C [14]: 110 % of control
- T/C [15]: 99 % of control
- T/C [16]: 98 % of control
- T/C [9]: 94 % of control
- T/C [10]: 95 % of control

Compound: CCC/C(=N/NC(N)=O)C(OC)OC
- T/C (dose: 37.5 mg/kg/injection, schedule: Q01DX009 (ip), vehicle: saline): 110 % of control
- T/C [17]: 98 % of control
- T/C (dose: 150.0 mg/kg/injection, schedule: Q01DX009 (ip), vehicle: saline): 106 % of control

Compound: COc1cc2c(cc1O)C1C(O)C(O)C=C3CCN(C2)C31 (centres undefined)
- T/C (dose: 4.0 mg/kg/injection, schedule: Q01DX009 (ip), vehicle: saline + alcohol): 114 % of control
- T/C (dose: 8.0 mg/kg/injection, schedule: Q01DX009 (ip), vehicle: saline + alcohol): 100 % of control
- T/C (dose: 16.0 mg/kg/injection, schedule: Q01DX009 (ip), vehicle: saline + alcohol): 105 % of control
- T/C (dose: 32.0 mg/kg/injection, schedule: Q01DX009 (ip), vehicle: saline + alcohol): 102 % of control

Compound: CC1c2ccccc2CC(CCN(C)C)c2ccccc21 (centres undefined)
- T/C [12]: 104 % of control
- T/C [14]: 98 % of control
- T/C [15]: 99 % of control
- T/C [16]: 95 % of control

Compound: NC(CCCNc1cccc(O)c1)C(=O)O (centres undefined)
- T/C [17]: 104 % of control
- T/C [4]: 87 % of control

Compound: COc1cccc(Sc2ccc([N+](=O)[O-])c3no[n+]([O-])c23)c1
- T/C (dose: 1.85 mg/kg/injection, schedule: Q01DX009 (ip), vehicle: saline with Tween-80): 111 % of control and 93 % of control
- T/C (dose: 3.75 mg/kg/injection, schedule: Q01DX009 (ip), vehicle: saline with Tween-80): 94 % of control and 101 % of control
- T/C (dose: 7.5 mg/kg/injection, schedule: Q01DX009 (ip), vehicle: saline with Tween-80): 92 % of control and 99 % of control
- T/C (dose: 15.0 mg/kg/injection, schedule: Q01DX009 (ip), vehicle: saline with Tween-80): 88 % of control and 91 % of control
- T/C (dose: 30.0 mg/kg/injection, schedule: Q01DX009 (ip), vehicle: saline with Tween-80): 88 % of control and 89 % of control and 95 % of control
- T/C (dose: 60.0 mg/kg/injection, schedule: Q01DX009 (ip), vehicle: saline with Tween-80): 91 % of control

Compound: COC(=O)[C@@]12OC[C@]34[C@H]([C@@H](O)[C@@H]1O)[C@@]1(C)CC(=O)C(O)=C(C)[C@@H]1C[C@H]3OC(=O)[C@H](OC(=O)/C=C(/C)C(C)(C)O)[C@@H]24
- T/C (dose: 0.25 mg/kg/injection, schedule: Q01DX009 (ip), vehicle: saline + alcohol): 104 % of control
- T/C (dose: 0.5 mg/kg/injection, schedule: Q01DX009 (ip), vehicle: saline + alcohol): 110 % of control and 117 % of control
- T/C (dose: 1.0 mg/kg/injection, schedule: Q01DX009 (ip), vehicle: saline + alcohol): 119 % of control

Compound: COc1ccc(CC2C(=O)NC(C)C(=O)N(C)C3C(=O)N(C)C(Cc4ccc(O)c(c4)Oc4ccc(cc4)C3O)C(=O)NC(C)C(=O)NC(C)C(=O)N2C)cc1 (centres undefined)
- T/C (dose: 0.25 mg/kg/injection, schedule: Q01DX005 (ip), vehicle: saline with Tween-80): 123 % of control
- T/C (dose: 0.25 mg/kg/injection, schedule: Q01DX005 (iv), vehicle: saline with Tween-80): 89 % of control and 107 % of control
- T/C (dose: 0.5 mg/kg/injection, schedule: Q01DX005 (iv), vehicle: saline with Tween-80): 98 % of control and 100 % of control
- T/C (dose: 0.5 mg/kg/injection, schedule: Q01DX009 (ip), vehicle: saline with Tween-80): 174 % of control
- T/C (dose: 1.0 mg/kg/injection, schedule: Q01DX005 (iv), vehicle: saline with Tween-80): 98 % of control and 99 % of control
- T/C (dose: 2.0 mg/kg/injection, schedule: Q01DX005 (iv), vehicle: saline with Tween-80): 98 % of control and 104 % of control
- T/C (dose: 2.0 mg/kg/injection, schedule: Q01DX009 (ip), vehicle: saline with Tween-80): 152 % of control

Compound: COc1ccc(C(Nc2ccccc2)C(=O)c2ccccc2)cc1 (centres undefined)
- T/C [13]: 102 % of control
- T/C [11]: 96 % of control
- T/C [7]: 96 % of control
